The source made the active and inactive calls.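 The calls were made as follows: active = compounds lowering the signal with a fitted AC50 at or below a set concentration limit; inconclusive = flat curve with 30 to 70% inhibition, or a poor fit; inactive = the rest.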
target: Caspase recruitment domain-containing protein 9 (Homo sapiens) + E3 ubiquitin-protein ligase TRIM62 (Homo sapiens) (UniProt Q9H257+Q9BVG3); test: CARD9/TRIM62 protein interaction inhibitors – cell lysate, HEK293FT lysates, Luminex bead readout, dose response (AID 1259338); details: Luminex bead PPI, MFI; as to activity change, negative = inhibition: reference of the scale not given here
Sequence (Q9BVG3 whole entry, looked up, the tested form may be a part): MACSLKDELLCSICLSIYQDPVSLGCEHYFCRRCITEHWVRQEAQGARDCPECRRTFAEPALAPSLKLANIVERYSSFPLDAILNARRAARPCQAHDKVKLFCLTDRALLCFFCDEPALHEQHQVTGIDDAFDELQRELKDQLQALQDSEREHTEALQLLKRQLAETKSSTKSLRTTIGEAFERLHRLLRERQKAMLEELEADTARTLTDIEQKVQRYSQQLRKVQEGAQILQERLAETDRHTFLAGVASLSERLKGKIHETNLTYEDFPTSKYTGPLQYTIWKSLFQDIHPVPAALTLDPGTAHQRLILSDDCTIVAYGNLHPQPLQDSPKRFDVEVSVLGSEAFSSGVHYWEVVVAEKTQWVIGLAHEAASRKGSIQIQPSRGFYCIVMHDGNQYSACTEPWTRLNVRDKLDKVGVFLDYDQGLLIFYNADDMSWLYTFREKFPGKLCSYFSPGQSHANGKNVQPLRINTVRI
Sequence (Q9H257 whole entry, looked up, the tested form may be a part): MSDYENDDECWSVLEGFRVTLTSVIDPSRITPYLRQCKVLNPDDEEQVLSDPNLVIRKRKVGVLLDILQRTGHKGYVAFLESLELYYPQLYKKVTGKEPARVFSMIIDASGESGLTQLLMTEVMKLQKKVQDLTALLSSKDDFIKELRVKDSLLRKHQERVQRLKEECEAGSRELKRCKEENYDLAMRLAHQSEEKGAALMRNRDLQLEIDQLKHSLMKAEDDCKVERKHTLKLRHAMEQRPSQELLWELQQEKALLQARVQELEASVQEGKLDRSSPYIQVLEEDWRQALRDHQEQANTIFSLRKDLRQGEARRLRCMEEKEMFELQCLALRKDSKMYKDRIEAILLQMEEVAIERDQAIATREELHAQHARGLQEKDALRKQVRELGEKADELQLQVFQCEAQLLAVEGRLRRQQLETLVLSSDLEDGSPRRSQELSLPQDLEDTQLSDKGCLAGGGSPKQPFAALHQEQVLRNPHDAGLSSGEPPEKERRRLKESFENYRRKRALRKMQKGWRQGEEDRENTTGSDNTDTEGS

Row | SMILES | AC50
1 | CC1=CCC(C(=O)O)C(C(=O)NC2CCCCC2)C1 (centres undefined) | 83.4 µM
2 | COc1ccc(NC(=O)CN(C)C(=O)c2cc(-c3ccco3)nc3ccccc23)cc1 | 78.2 µM
3 | c1ccc(-c2nc(-c3ccco3)n3ccccc23)cc1 | > 76 µM (inactive)
4 | c1cn(CCc2noc(C3CCCC3)n2)c(-c2cc3n(n2)CCCNC3)n1 | 53.7 µM
5 | COc1ccc(-n2c(C)c3c(OC)cccc(=O)c3c2C)cc1 | 79.7 µM
6 | CCCN1CCCn2nc(CNC(=O)[C@@H](N)Cc3ccc(O)cc3)cc2C1 | 27.8 µM
7 | O=C(NCCc1ccccc1)c1cc2cccnc2n(Cc2ccccc2)c1=O | > 160 µM (inactive)
8 | Cc1noc(C)c1S(=O)(=O)Nc1ccc2c(c1)C(=O)N([C@H](C)CO)C[C@H](C)[C@@H](CN(C)C(=O)C1CCCCC1)OCCCC[C@H](C)O2 | > 160 µM (inactive)
9 | O=C(O)c1ccc2nc(-c3ccco3)c(-c3ccco3)nc2c1 | 34.7 µM
10 | NC(=O)C1(N2CCCCC2)CCN(c2ncc(NC(=O)c3ccccc3)cc2C(=O)O)CC1 | 3.25 µM
11 | CCCN1CCCn2nc(CNC(=O)[C@H]3CC[C@@H](N)C3)cc2C1 | 23 µM
12 | Cc1ccc(Nc2nc(C(=O)Nc3ccc(Cl)cc3)nc3ccccc23)cc1 | 22.9 µM
13 | Cc1ncnc(N2CCC(c3nccn3Cc3cccnc3)CC2)c1C | > 160 µM (inactive)
14 | O=C(Nc1ccc2oc(-c3ccncc3)nc2c1)c1ccc2c(c1)OCO2 | 41.8 µM
15 | COc1cccc(NC(=O)CN(C)C(=O)c2cc3c(s2)CCC3)c1 | 50.6 µM
16 | Nc1ccc(-c2cccc(CN3CCCC3)c2)cc1 | > 160 µM (inactive)
17 | Cc1cccc2nc(CSCc3ccco3)cn12 | > 160 µM (inactive)
18 | O=S(=O)(c1ccc2nc(-c3ccco3)c(-c3ccco3)nc2c1)N1CCOCC1 | > 160 µM (inactive)
19 | Cc1ccc(N2NC(c3ccc(Br)cc3)=CCC2=O)cc1 | 50.9 µM
20 | OCc1ccc(O)c2ncccc12 | 23.5 µM
21 | CCN1CCN(C(=O)c2cc(-c3ccco3)nc3ccccc23)CC1 | 61.4 µM
22 | Cc1ccc2cc(CN(Cc3ccco3)S(C)(=O)=O)c(=O)[nH]c2c1 | > 160 µM (inactive)
23 | CC(=O)c1ccc(NC(=O)c2noc3c2CCC3)cc1 | > 160 µM (inactive)

same assay, conditions: Luminex bead PPI, MFI, at 38 µM (top of the series)

Row | SMILES | activity change, negative = inhibition
24 | COc1ccc(NC(=O)c2nc(Nc3ccccc3)c3ccccc3n2)cc1 | inactive
25 | COCCn1c(C)cc(-c2csc(N)n2)c1C | inactive

same assay, conditions: Luminex bead PPI, MFI, at 80 µM (top of the series)

Row | SMILES | activity change, negative = inhibition
26 | O=C(Nc1ccon1)c1cc2cccnc2n(Cc2ccccc2)c1=O | inactive
27 | CCC1c2ccc(C)n2CCN1C(=O)Nc1ccccc1C(=O)OC (centres undefined) | inactive
28 | C[C@H](CO)N1C[C@H](C)[C@@H](CN(C)CC2CCCCC2)OCCCC[C@H](C)Oc2ccc(NS(=O)(=O)c3ccccc3)cc2C1=O | inactive
29 | CCOc1ccc(-n2c3nc4ccccc4nc3c3c(=O)n(Cc4ccco4)cnc32)cc1 | inactive
30 | Cn1cccc1CNCCCSc1ncccn1 | inactive
31 | Nc1cc2c(cc1O)CCCC2 | inactive
32 | Cc1nn2c(c1-c1ccccc1)NC(c1ccco1)=CC2c1ccco1 (centres undefined) | inactive
33 | O=c1oc(-c2ccccc2)nc2sc3c(c12)CCC3 | inactive
34 | CCOC(=O)c1ccc(-c2ccc(C3CC(=O)Nc4cc5c(cc43)OCCO5)o2)cc1 (centres undefined) | inactive
35 | CCSCCNC(=O)c1cncc(Br)c1 | inactive
36 | O=S(=O)(Nc1nc2ccc(S(=O)(=O)N3CCCCC3)cc2s1)c1ccccc1 | inactive
37 | O=C1CC(c2ccco2)Cc2nc(N3CCc4ccccc4C3)ncc21 (centres undefined) | inactive
38 | CCOc1ccc(CNc2nc(-c3nnc(-c4ccc(F)cc4)o3)nc3ccccc23)cc1 | inactive
39 | O=C(CCN1CCOCC1)c1ccc2c(c1)OCCO2 | inactive
40 | CCOC(=O)/C=C/S(=O)(=O)c1ccc(NC(C)=O)cc1 | inactive
41 | O=C(NCCc1ccco1)c1ccc(OCc2cn3ccccc3n2)cc1 | inactive
42 | O=[N+]([O-])c1ccc2cc[nH]c2c1 | inactive
43 | Cc1occc1C(=O)NCc1cccc(CNC(=O)c2ccoc2C)c1 | inactive
44 | O=C(Nc1ccc2oc(-c3cccnc3)nc2c1)c1ccc2c(c1)OCCO2 | inactive
45 | O=C(Cc1cccs1)Nc1nnc(Cc2ccccc2)s1 | inactive
46 | CC1(C)Cc2ccccc2-c2nc(-c3ccccc3)oc(=O)c21 | inactive
47 | C[n+]1cccc2cccc(O)c21 | inactive
48 | CCN(CCNC(=O)C1CCN(S(=O)(=O)c2c(C)noc2C)CC1)c1ccccc1 | inactive

Row | SMILES | activity change, negative = inhibition
49 | O=S(=O)(c1ccc(F)cc1)N1CN(Cc2ccco2)c2nc3ccccc3nc21 | inactive
50 | CC(C)=CCC(C#N)(CC=C(C)C)C(=O)O | inactive
51 | Cc1c(/C=C/c2nc3ccccc3c(=O)n2-c2ccccn2)c2ccccc2n1C | inactive
52 | O=C(Cn1cncc1-c1ccc([N+](=O)[O-])cc1)Nc1ccccc1F | inactive
53 | N#CCSc1nc2c(c(=O)n1Cc1ccco1)C1(CCCC1)Cc1ccccc1-2 | inactive
54 | COc1ccc(S(=O)(=O)Nc2ccc3c(c2)C(=O)N([C@H](C)CO)C[C@H](C)[C@@H](CN(C)C(=O)C2CCCCC2)OCCCC[C@H](C)O3)cc1 | inactive
55 | CN(Cc1ccco1)S(=O)(=O)c1nnc(NC(=O)c2ccccc2)s1 | inactive
56 | Cc1ccc(-c2cc(C(=O)Nc3ccccn3)c3ccccc3n2)o1 | inactive
57 | C[C@H](CO)N1C[C@H](C)[C@@H](CN(C)C(=O)C2CCCCC2)OCCCC[C@H](C)Oc2ccc(NS(=O)(=O)c3ccc(F)cc3)cc2C1=O | inactive
58 | CS(=O)(=O)N1CCN(c2ccc([N+](=O)[O-])c(SCc3ccco3)c2)CC1 | inactive
59 | CC(=O)Nc1ccc(Nc2nc(-c3nnc(-c4cccc(C)c4)o3)nc3ccccc23)cc1 | inactive
60 | Cc1scc(C(=O)NCc2ccco2)c1-c1ccccc1 | inactive
61 | Cc1sc2ncnc(SCc3ccco3)c2c1C | inactive
62 | CCOC(=O)c1[nH]c(Cc2[nH]c(C(=O)OCC)c(C)c2C)c(C)c1C | inactive
63 | CCN1CCOC(=O)C1CC(=O)Nc1cccc(C)c1 (centres undefined) | inactive
64 | O=C(COC(=O)c1ccc(S(=O)(=O)NCc2ccco2)cc1)Nc1ccc(Cl)cn1 | inactive
65 | O=c1/c(=C/c2ccco2)sc2nc3ccccc3n12 | inactive
66 | COCCCNC(=O)C1CCN(c2ccc(N3CCOCC3)nn2)CC1 | inactive
67 | CN(C)C(CN=C1NS(=O)(=O)c2ccccc21)c1ccco1 (centres undefined) | inactive
68 | COc1ccc(Nc2nc(-c3nnc(-c4ccc(F)cc4)o3)nc3ccccc23)cc1Cl | inactive
69 | O=C(Nc1nc(-c2ccco2)c(-c2ccco2)s1)c1ccc(F)cc1F | inactive
70 | COc1ccc(CNC(=O)c2nc(Nc3ccc(C)cc3)c3ccccc3n2)cc1 | inactive
71 | Cc1ccc(C)n1NC(=O)c1ccccc1O | inactive

Row | SMILES | activity change, negative = inhibition
72 | CCCc1oc(C(=O)O)cc1CN | inactive
73 | O=[N+]([O-])c1ccc2nn(Cc3ccccc3)cc2c1 | inactive
74 | COc1ccc(F)c(CN2C[C@H]3CC[C@@H]2CN(Cc2cscn2)C3)c1 | inactive
75 | C[C@H](CO)N1C[C@H](C)[C@H](CN(C)C(=O)C2CCCCC2)OCCCC[C@H](C)Oc2ccc(NS(=O)(=O)c3cccs3)cc2C1=O | inactive
76 | O=C(COC(=O)c1ccccc1Oc1ccccc1)NCc1ccco1 | inactive
77 | O=C(COC(=O)c1cc(-c2ccco2)nc2ccccc12)NCc1ccc2c(c1)OCO2 | inactive
78 | O=C1NC(c2ccc(Br)cc2)Nc2sc3c(c21)CCC3 (centres undefined) | inactive
79 | O=C(NCc1ccco1)c1ccc(S(=O)(=O)N2CCOCC2)cc1 | inactive
80 | O=C(Nc1ncccc1O)c1ccc(OCC2CCCO2)cc1 (centres undefined) | inactive
81 | Cc1nc(C)c(C(=O)Nc2ncc([N+](=O)[O-])s2)o1 | inactive
82 | O=C(Nc1nc(-c2ccco2)c(-c2ccco2)s1)c1ccco1 | inactive
83 | Cc1[nH]c2ccc(Cl)cc2c(=O)c1CN1CCCC1 | inactive
84 | Cc1ccc(C2CC(=O)C3=C(C2)Nc2ccccc2NC3c2cccnc2)cc1 (centres undefined) | inactive
85 | C[C@H](CO)N1C[C@H](C)[C@@H](CN(C)CC2CCCCC2)OCCCC[C@H](C)Oc2ccc(NS(=O)(=O)c3cccs3)cc2C1=O | inactive
86 | O=C(CN1CCN(c2ccccc2O)CC1)NC(=O)NC1CCCC1 | inactive
87 | O=C(Nc1cccc2ccccc12)NC1CC1 | inactive
88 | CCc1nc(OCc2ccco2)c2sc3nc4c(cc3c2n1)COC(C)(C)C4 | inactive
89 | C[C@H](CO)N1C[C@H](C)[C@@H](CN(C)C(=O)C2CCCCC2)OCCCC[C@H](C)Oc2ccc(NS(=O)(=O)c3ccc(Cl)cc3)cc2C1=O | inactive
90 | O=C1c2ccccc2S(=O)(=O)N1Cc1cccc(S(=O)(=O)N2CCOCC2)c1 | inactive
91 | N#Cc1c(-c2ccco2)cc(-c2ccccn2)nc1N | inactive
92 | Cc1nc2ccccc2nc1CSCc1ccco1 | inactive
93 | COc1cc(N)c(Cc2nccc3cc(OC)c(OC)cc23)cc1OC | inactive
94 | N#Cc1c(-c2ccco2)cc(-c2cccnc2)nc1N | inactive
